Paper PMC9071444 (Nucleic Acids Research, 2022)
Entries after “also recorded” stand apart in the source; their conditions may differ. Like-named read-outs stand apart in the source and are kept apart here.

What was measured:
[1] = system: TBEV-5; format: binding, tick-borne encephalitis virus
[2] = system: TBEV-5; format: binding, tick-borne encephalitis virus; remark: listed apart in the source
[3] = system: TBEV-5; format: binding, tick-borne encephalitis virus; remark: listed apart in the source
[4] = system: TBEV-5; format: binding, tick-borne encephalitis virus; remark: listed apart in the source
[5] = system: Japanese encephalitis virus RdRp; format: biochemical
[6] = system: SuperScript IV reverse transcriptase; format: biochemical
[7] = system: PS cells
[8] = system: RNA G4 derived from the Nipah virus and ZIKV genomes; conditions: cited from earlier work
[9] = system: TBEV strains Neudoerfl and Hypr; assay: microbe, parasite or virus in culture; format: cell-based, tick-borne encephalitis virus; conditions: for EC50: read-out: EC50
[10] = system: TBEV strain Neudoerfl
[11] = system: TBEV strain Hypr
[12] = in vitro; conditions: pig
[13] = system: TBEV strain Neudoerfl; assay: microbe, parasite or virus in culture; conditions: Tick-borne encephalitis virus, 48 h
[14] = system: TBEV strain Hypr; assay: microbe, parasite or virus in culture; conditions: Tick-borne encephalitis virus, 48 h
[15] = system: ZIKV virus; conditions: 100 μM; cited from earlier work
[16] = system: SuperScript IV reverse transcriptase; format: biochemical; remark: listed apart in the source
[17] = system: TBEV strain Hypr; format: cell-based, tick-borne encephalitis virus
[18] = system: TBEV strain Neudoerfl; format: cell-based, tick-borne encephalitis virus
[19] = system: TBEV strain Hypr; format: cell-based, tick-borne encephalitis virus; remark: listed apart in the source
[20] = system: Viral genome RNA from the TBEV strain Hypr; format: cell-based, tick-borne encephalitis virus
[21] = system: TBEV strains Neudoerfl and Hypr; format: cell-based, tick-borne encephalitis virus
[22] = system: ZIKV NS2B-NS3 protease; conditions: cited from earlier work
[23] = system: ZIKV; conditions: cited from earlier work
[24] = target: Japanese encephalitis virus RdRp (Japanese encephalitis virus, UniProt P32886); format: biochemical
[25] = system: HCV RdRp; conditions: cited from earlier work
[26] = Tick-borne encephalitis virus, 48 h

Chain of Japanese encephalitis virus RdRp (Japanese encephalitis virus, UniProt P32886) (P32886 2528-3432 limits assumed): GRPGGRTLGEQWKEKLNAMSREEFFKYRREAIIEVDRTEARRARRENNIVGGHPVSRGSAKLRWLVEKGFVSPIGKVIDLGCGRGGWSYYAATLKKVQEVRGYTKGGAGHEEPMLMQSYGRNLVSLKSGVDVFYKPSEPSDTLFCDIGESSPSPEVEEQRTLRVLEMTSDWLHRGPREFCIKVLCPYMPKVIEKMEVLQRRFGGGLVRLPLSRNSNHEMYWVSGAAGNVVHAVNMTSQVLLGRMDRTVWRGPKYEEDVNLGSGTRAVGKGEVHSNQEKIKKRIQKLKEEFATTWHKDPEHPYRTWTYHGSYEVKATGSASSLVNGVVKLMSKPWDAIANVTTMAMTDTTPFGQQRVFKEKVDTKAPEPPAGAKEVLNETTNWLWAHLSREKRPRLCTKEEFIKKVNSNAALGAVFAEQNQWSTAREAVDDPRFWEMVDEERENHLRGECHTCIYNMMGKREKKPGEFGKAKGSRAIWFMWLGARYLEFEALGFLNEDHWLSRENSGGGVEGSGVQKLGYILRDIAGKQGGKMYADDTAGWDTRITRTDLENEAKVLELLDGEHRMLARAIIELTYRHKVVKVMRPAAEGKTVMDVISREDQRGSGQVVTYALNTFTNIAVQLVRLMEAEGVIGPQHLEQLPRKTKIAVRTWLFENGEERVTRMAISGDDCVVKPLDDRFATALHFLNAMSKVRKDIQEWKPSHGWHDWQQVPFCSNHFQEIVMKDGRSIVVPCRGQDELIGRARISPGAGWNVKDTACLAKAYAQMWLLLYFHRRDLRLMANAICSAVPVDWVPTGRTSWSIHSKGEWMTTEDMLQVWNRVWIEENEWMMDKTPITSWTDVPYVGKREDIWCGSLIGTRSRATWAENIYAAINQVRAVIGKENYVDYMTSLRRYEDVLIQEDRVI

| Molecule | G4 specificity of binding (titration curves with TBEV-5 versus TBEV-5mut) [2] | Increase in Tm of TBEV-5 G4 [4] | RdRp activity relative to no-ligand control [5] | CC50 [7] | SI (CC50/EC50) [10] | SI (CC50/EC50) [11] | EC50 [10] | EC50 [11] | Inhibition of RT [16] | Course of anti-TBEV activity over time [9] | Phase of the viral replication cycle in which the antiviral action takes effect [19] | other results |
| --- | --- | --- | --- | --- | --- | --- | --- | --- | --- | --- | --- | --- |
| 5,10,15,20-tetrakis-(N-methyl-4-pyridyl)porphine [TMPyP4] | bind non-specifically | strong distortion of melting curves | < 10% | > 50 µM | – | – | – | – | – | – | – | Displacement of the probe (TO or ThT) [1]: ~100%; Binding of TBEV-5 (concentration for 50% TBEV-5 saturation) [2]: best binder; Change of CD at 263 nm of TBEV-5 [3]: most pronounced; Full product of reverse transcription relative to no-ligand control [6]: inhibits reverse transcriptase; Interaction with RNA G4 [8]: specifically interact |
| O=C1c2cccc(O)c2C(=O)c2c(O)cc(CO)cc21 [Aloe emodin, aloe-emodin] | – | strong distortion of melting curves | – | – | >1 | >1 | – | – | – | – | – | Displacement of ThT [1]: did not significantly displace; Virus inhibition in initial screening [9]: no virus inhibition effects; CC50 [12]: > 50 µM; EC50 [13]: > 50 µM; EC50 [14]: > 50 µM |
| CN(C)c1ccc(Nc2c3ccc(NC(=O)CCN4CCCC4)cc3nc3cc(NC(=O)CCN4CCCC4)ccc23)cc1 [BRACO-19] | – | strong distortion of melting curves | – | > 50 µM | >1 | >1 | > 50 µM | > 50 µM | – | – | – | Virus inhibition in initial screening [9]: no virus inhibition effects; Effect on ZIKV virus titers [15]: decrease ZIKV virus titers; Interaction with RNA G4 [8]: specifically interact |
| COc1ccc2cc3[n+](cc2c1OC)CCc1cc2c(cc1-3)OCO2 [Berberin, berberine] | specifically bind G4 | up to 3.5 °C | – | – | – | – | – | – | did not inhibit RT | stable over time | post-entry/fusion phase | Displacement of TO [1]: did not displace; Displacement of ThT [1]: around 50%; Full product of reverse transcription relative to no-ligand control [6]: does not inhibit RT; EC50 [9, 26]: 1.2 to 2.9 µM; Reduction of numbers of viral RNA copies [17]: about 40%; Reduction of numbers of viral RNA copies [18]: ~25%; Suppression of infectious viral particle formation [20]: partial; CC50 [12]: > 50 µM; EC50 [13]: 1.26 µM; EC50 [14]: 1.57 µM |
| CN(C)c1ccc(C(=C2C=CC(=[N+](C)C)C=C2)c2ccc(N(C)C)cc2)cc1 [CV, crystal violet] | – | – | – | – | – | – | – | – | – | – | – | CC50 ([7]; pig): < 1.6 µM |
| Cc1cnc(CNC(=O)c2c(=O)c3ccc(N4CCCN(C)CC4)nc3n3c2sc2ccccc23)cn1 [CX5461] | – | – | – | – | – | – | – | – | – | – | – | CC50 ([7]; pig): 14.1 µM; Antiviral effect at the lowest non-cytotoxic concentration [10]: ^eNo antiviral effect was observed at the lowest non-cytotoxic concentration of 5 μM.; Antiviral effect at the lowest non-cytotoxic concentration [11]: ^eNo antiviral effect was observed at the lowest non-cytotoxic concentration of 5 μM. |
| CCC1=C(C)c2cc3[nH]c(cc4nc(cc5c(CCC(=O)O)c(C)c(cc1n2)n5C)C(CCC(=O)O)=C4C)c(C)c3CC [NMM, N-Methylmesoporphyrin IX] | specifically bind G4 | up to 3.5 °C | – | > 50 µM | >5000 | >2 500 | 0.01 µM | 0.02 µM | did not inhibit RT | stable over time | prior to the entry/fusion steps | Full product of reverse transcription relative to no-ligand control [6]: inhibits reverse transcriptase; Concentration that completely suppressed TBEV replication [9]: 1.6 µM; Effect on viral RNA copies [21]: complete inhibition of RNA synthesis; Viable viral particle formation [20]: no viable viral particle formation; Cell morphology and monolayer cohesion [7]: observable changes in cell morphology and in mechanical monolayer cohesion |
| NCCOc1cc(C(=O)Nc2cc(OCCN)c3ccccc3n2)nc(C(=O)Nc2cc(OCCN)c3ccccc3n2)c1 [PDS, Pyridostatin] | – | – | < 10% | – | – | – | – | – | strong inhibitory effect | stable over time | post-entry/fusion phase | EC50 [9, 26]: 1.2 to 2.9 µM; Suppression of infectious viral particle formation [20]: partial; also recorded: complete; Effect on ZIKV NS2B-NS3 protease [22]: reduces its catalytic activity; Phase of ZIKV cycle affected [23]: replication period rather than entry; CC50 [12]: > 50 µM; EC50 [13]: 2.94 µM; EC50 [14]: 1.29 µM |
| C[n+]1cc(NC(=O)c2ccc3ccc4ccc(C(=O)Nc5cc6ccccc6[n+](C)c5)nc4c3n2)cc2ccccc21 [PhenDC3] | – | strong distortion of melting curves | < 10% | > 50 µM | >8.66 | >8.08 | 5.77 µM | 5.68 µM | strong inhibitory effect | gradually disappeared or dropped significantly | post-entry/fusion phase | Displacement of the probe (TO or ThT) [1]: ~100%; Change of CD at 263 nm of TBEV-5 [3]: most pronounced; Inhibition of RdRp activity [24]: almost completely inhibits; EC50 [9]: ~5 µM; Effect on HCV RdRp [25]: no significant effect |
| CN1C(=Cc2cc[n+](C)c3ccccc23)Sc2ccccc21 [TO, thiazole orange] | bind non-specifically | strong distortion of melting curves | – | 1.8 µM | – | – | – | – | – | – | – | Displacement of ThT [1]: almost entirely displaces; Change of CD at 263 nm of TBEV-5 [3]: most pronounced |
| Cc1ccc2c(c1)sc(-c1ccc(N(C)C)cc1)[n+]2C [ThT, thioflavin T] | specifically bind G4 | up to 3.5 °C | – | – | – | – | – | – | – | – | – | Displacement of TO [1]: does not displace; CC50 ([7]; pig): 10.6 µM; Antiviral effect at the lowest non-cytotoxic concentration [10]: ^eNo antiviral effect was observed at the lowest non-cytotoxic concentration of 5 μM.; Antiviral effect at the lowest non-cytotoxic concentration [11]: ^eNo antiviral effect was observed at the lowest non-cytotoxic concentration of 5 μM. |
| NCCOc1cc(NC(=O)c2cc(OCc3cn(CCC(=O)O)nn3)cc(C(=O)Nc3cc(OCCN)c4ccccc4n3)n2)nc2ccccc12 [cPDS, Carboxy pyridostatin] | – | strong distortion of melting curves | < 10% | > 50 µM | >11.23 | >9.05 | 4.45 µM | 5.52 µM | – | gradually disappeared or dropped significantly | post-entry/fusion phase | EC50 [9]: ~5 µM |
